pIC50: −log10 of the molar value.
Key:
BTK kinase = BTK kinase (Homo sapiens, UniProt Q06187); experiment: BTK kinase inhibitory activity (QSS Assist BTK_MSA kit); assay type: biochemical; conditions: 30 min preincubation, ATP 1 mM, concentration as compound A free form
Description: The BTK kinase inhibitory activity was evaluated using QSS Assist BTK_MSA kit (Carna Bioscience).
The test compound B was dissolved in dimethyl sulfoxide (DMSO) to prepare a solution at a 100-fold concentration as compared to the final concentration. The solution was also 25-fold diluted with an appurtenant assay buffer to obtain a test compound B solution. In addition, BTK kinase appurtenant to the kit was used for the reaction.
5 μL of the test compound B solution at a 4-fold concentration, prepared using the aforementioned assay buffer, and 10 μL of a BTK kinase solution at a 2-fold concentration were mixed within a well of a 384 well plate, and left to undergo a reaction at room temperature for 30 minutes. Continuously, 5 μL of a substrate peptide/ATP/MgCl2 solution at a 4-fold concentration was added thereto to perform the reaction at room temperature for 1 hour. The substrate peptide was used at a final concentration of 1000 nM, ATP at a final concentration of 1 mM, and MgCl2 at a final concentration of 5 mM. Thereafter, 60 μL of an appurtenant termination buffer was added thereto to stop the reaction. The BTK kinase activity was calculated by quantifying a product conversion ratio obtained from the substrate peptide peak height and the product (phosphorylated substrate peptide) peak height with LabChip EZ Reader II (PerkinElmer). […]

ITK kinase = biological target: T1, ITK kinase (Homo sapiens, UniProt Q08881); experiment: ITK kinase inhibitory activity (Mobility Shift Assay); assay type: biochemical; conditions: ATP 1000 μM, read-out: inhibitory % against ITK kinase activity
T1 sequence (Q08881 1-620): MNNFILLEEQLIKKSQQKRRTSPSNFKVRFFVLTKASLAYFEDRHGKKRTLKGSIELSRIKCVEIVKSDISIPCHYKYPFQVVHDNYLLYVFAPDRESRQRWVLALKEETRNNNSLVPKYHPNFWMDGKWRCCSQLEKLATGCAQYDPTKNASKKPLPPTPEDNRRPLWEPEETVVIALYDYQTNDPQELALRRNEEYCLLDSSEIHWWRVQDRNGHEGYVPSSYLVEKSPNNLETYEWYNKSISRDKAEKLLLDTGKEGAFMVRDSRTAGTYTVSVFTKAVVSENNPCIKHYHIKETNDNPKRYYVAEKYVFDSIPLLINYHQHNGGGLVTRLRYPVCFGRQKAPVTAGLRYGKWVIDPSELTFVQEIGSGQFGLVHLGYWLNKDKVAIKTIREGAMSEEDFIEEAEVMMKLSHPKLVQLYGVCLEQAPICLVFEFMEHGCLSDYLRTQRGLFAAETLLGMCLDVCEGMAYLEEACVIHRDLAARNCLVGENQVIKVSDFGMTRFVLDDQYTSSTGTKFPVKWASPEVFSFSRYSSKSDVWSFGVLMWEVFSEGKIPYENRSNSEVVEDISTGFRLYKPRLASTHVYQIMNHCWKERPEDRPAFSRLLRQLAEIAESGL
Description: The ITK kinase inhibitory activity was evaluated using Mobility Shift Assay system.
The test compound B was dissolved in dimethyl sulfoxide (DMSO) to prepare a solution at a 100-fold concentration as compared to the test concentration. The solution was also 25-fold diluted with an assay buffer (20 mM HEPES, 0.01% Triton X-100, 1 mM DTT, pH 7.5) to obtain a test substance solution.
5 μL of the test compound B solution at a 4-fold concentration, prepared using the aforementioned assay buffer, and 10 μL of a ITK kinase solution at a 2-fold concentration were mixed within a well of a 384 well plate, and incubated at room temperature for 30 minutes. Continuously, 5 μL of a substrate peptide (Srctide, PEPTIDE INSTITUTE, INC. #AD-995)/ATP/MgCl2 solution at a 4-fold concentration was added thereto to perform the reaction at room temperature for 1 hour. The substrate peptide was used at a final concentration of 1000 nM, ATP at a final concentration of 1000 μM, and MgCl2 at a final concentration of 5 mM. Thereafter, 60 μL of a termination buffer (127 mM HEPES, 0.01% Triton X-100, 26.7 mM EDTA, 1% DMSO, pH 7.5) was added thereto to stop the reaction. The ITK kinase activity was calculated by quantifying a product conversion ratio obtained from the substrate peptide peak height and the product (phosphorylated substrate peptide) peak height with LabChip3000 (PerkinElmer). […]

BTK kinase, sequence (Q06187 whole entry): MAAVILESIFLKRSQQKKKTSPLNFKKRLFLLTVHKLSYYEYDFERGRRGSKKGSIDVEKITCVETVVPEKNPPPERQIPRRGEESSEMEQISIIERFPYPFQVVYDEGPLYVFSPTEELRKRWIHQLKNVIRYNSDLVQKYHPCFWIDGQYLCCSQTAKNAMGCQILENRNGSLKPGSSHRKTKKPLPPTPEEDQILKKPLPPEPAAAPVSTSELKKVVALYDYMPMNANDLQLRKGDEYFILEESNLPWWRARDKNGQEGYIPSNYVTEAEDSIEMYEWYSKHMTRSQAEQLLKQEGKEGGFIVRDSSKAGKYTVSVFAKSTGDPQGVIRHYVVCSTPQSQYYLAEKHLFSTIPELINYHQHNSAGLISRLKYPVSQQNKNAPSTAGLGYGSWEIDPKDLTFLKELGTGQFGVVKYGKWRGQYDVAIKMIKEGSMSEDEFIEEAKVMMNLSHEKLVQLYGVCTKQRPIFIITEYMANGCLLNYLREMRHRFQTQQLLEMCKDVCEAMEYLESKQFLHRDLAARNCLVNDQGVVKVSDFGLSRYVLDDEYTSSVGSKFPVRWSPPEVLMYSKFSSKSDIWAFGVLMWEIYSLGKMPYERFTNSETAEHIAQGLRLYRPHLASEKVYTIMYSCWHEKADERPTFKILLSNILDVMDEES

pIC50 (BTK kinase): 9.77
inhibition at 0.001 µM (ITK kinase; 1 nM test compound): 29.5%
inhibition at 0.01 µM (ITK kinase; 10 nM test compound): 92.6%
SMILES: C=CC(=O)N1CC[C@@H](Oc2nc(Nc3ccc(N4CCC(N5CCN(C)CC5)CC4)cc3)c(C(N)=O)nc2CC)C1 [test compound B, 5-{[(3R)-1-acryloylpyrrolidin-3-yl]oxy}-6-ethyl-3-({4-[4-(4-methylpiperazin-1-yl)piperidin-1-yl]phenyl}amino)pyrazine-2-carboxamide monomethanesulfonate]

Source: patent publication US20170196859A1, “PHARMACEUTICAL COMPOSITION COMPRISING PYRAZINE CARBOXAMIDE COMPOUND AS ACTIVE INGREDIENT” (Astellas Pharma Inc., priority 2014, published 2017)
